According to patent US10793575B2, “Oxoisoquinoline derivatives” (CARNA BIOSCIENCES, INC., priority 2016, dated 2020):

Experiments:
wild type BTK [BTK(WT)] = wild type BTK [BTK(WT)] (Homo sapiens (Human), UniProt Q06187); assay: C481S Mutant BTK Inhibitory Activity Test, wild type BTK (mobility shift assay); format: biochemical; settings: 120 μM ATP
Description: (§1) The kinase activity was measured using QuickScout Screening Assist (trademark) MSA (commercially available kit manufactured by Carna Biosciences, Inc.) by mobility shift assay (MSA) method. The substrate of the kinase reaction was an FITC-labeled SRCtide peptide included in the kit. […] The 10 mM solution of the test compound in DMSO was further diluted with DMSO to 10 levels of the concentration (0.00003 mM, 0.0001 mM, 0.0003 mM, 0.001 mM, 0.003 mM, 0.01 mM, 0.03 mM, 0.1 mM, 0.3 mM, 1 mM), each of which was subjected to a 25-fold dilution with the assay buffer to obtain the drug solutions (4% DMSO solutions).
(§2) 5 μL of the drug solution or a control solution (4% DMSO-assay buffer), 5 μL of the substrate mixture solution, and 10 μL of the enzyme solution were mixed in the wells of a polypropylene 384-well plate and allowed to react at room temperature for 1 hour, and then quenched by adding 60 μL of the termination buffer included in the kit. Subsequently, the quantities of the substrates (S) and the phosphorylated substrate (P) in the reaction solution were measured using LabChip EZ Reader II system (manufactured by Caliper Life Sciences) according to the protocol of the assay kit.
(§3) The heights of the peaks of the isolated substrate and the phosphorylated substrate were represented as S and P, respectively, and a blank which contained the assay buffer instead of the enzyme solution was also measured.
(§4) The inhibition rate (%) of the test compound was calculated according to the following equation; Inhibition rate (%)=(1−(C−A)/(B−A))×100 • wherein, A, B and C represent P/(P+S) of the blank well, P/(P+S) of the control well and P/(P+S) of the compound-containing well, respectively.
(§5) The IC50 value was calculated via a regression analysis of the inhibition rate (%) and the test compound concentration (logarithmic value).

OCI-Ly10 cells = assay: Proliferation-Inhibitory Test Against Diffuse Large-Cell B-Cell Lymphoma OCI-Ly10 Strain; format: cell-based; settings: Homo sapiens, 96 hours, alamarBlue
Outline: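 Proliferation was read by alamarBlue after a 96-hour incubation. Final compound concentrations spanned 0.9 nM to 30000 nM with 0.3% DMSO. Cells were seeded at 20000 per well in IMDM containing 20% fetal bovine serum under 5% CO2.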

[1] = target: C481S mutant BTK [BTK(C481S)] (Homo sapiens (Human), UniProt Q06187, C481S); assay: C481S Mutant BTK Inhibitory Activity Test (mobility shift assay); format: biochemical; settings: for IC50: C481S mutant BTK, 100 μM ATP; for C481S mutation-resistance: IC50[BTK(C481S)]/IC50[BTK(WT)]
Description: as §1, §2, §3, §4, §5

dephosphorylated BTK = dephosphorylated BTK (Homo sapiens (Human), UniProt Q06187); assay: BTK Activity Inhibition Test (mobility shift assay); format: biochemical; settings: 200 μM ATP, read-out: Inhibitory Activity on BTK
Description: Dephosphorylated BTK was obtained by adding λ protein phosphatase (manufactured by New England BioLabs Inc., Code No. P0753S) and MnCl2 at 10 U/μg and 2 mM, respectively, to biotinylated BTK protein BTN-BTK (Manufactured by Carna Biosciences, Inc.) enzyme solution, reacting the mixture at 4° C. overnight, and removing of λ protein phosphatase by anti […]-tag antibody agarose gel chromatography, followed by buffer exchange using a 10DG Desalting Column.
The kinase activity was measured using QuickScout Screening Assist (trade mark) MSA (commercially available kit manufactured by Carna Biosciences, Inc.) by mobility shift assay (MSA) method. The substrate of the kinase reaction was an FITC-labeled SRCtide peptide included in the kit. An assay buffer [20 mM HEPES, 0.01% Triton X-100 (Trade mark), 2 mM dithiothreitol, pH 7.5] was used and adjusted at 4 μM substrate, 20 mM MgCl2 and 200 μm ATP to obtain a substrate mixture solution. The enzyme solution was also prepared by diluting the dephosphorylated BTK to 0.46 nM using the assay buffer. The 10 mM solution of the test compound in DMSO was further diluted with DMSO to 10 levels of the concentration (0.00003 mM, 0.0001 mM, 0.0003 mM, 0.001 mM, 0.003 mM, 0.01 mM, 0.03 mM, 0.1 mM, 0.3 mM, 1 mM), each of which was subjected to a 25-fold dilution with the assay buffer to obtain the drug solutions (4% DMSO solutions). 5 μL of the drug solution or a control solution (4% DMSO-assay buffer), 5 μL of the substrate mixture solution, and 10 μL of the enzyme solution were mixed in the wells of a polypropylene 384-well plate and allowed to react at room temperature for 2 hours, and then quenched by adding 60 μL of the termination buffer included in the kit. Subsequently, the quantities of the substrates (S) and the phosphorylated substrate (P) in the reaction solution were measured using LabChip EZ Reader II system (manufactured by Caliper Life Sciences) according to the protocol of the assay kit.
as §3, §4, §5

Chain of C481S mutant BTK [BTK(C481S)] (Q06187 whole entry C481S): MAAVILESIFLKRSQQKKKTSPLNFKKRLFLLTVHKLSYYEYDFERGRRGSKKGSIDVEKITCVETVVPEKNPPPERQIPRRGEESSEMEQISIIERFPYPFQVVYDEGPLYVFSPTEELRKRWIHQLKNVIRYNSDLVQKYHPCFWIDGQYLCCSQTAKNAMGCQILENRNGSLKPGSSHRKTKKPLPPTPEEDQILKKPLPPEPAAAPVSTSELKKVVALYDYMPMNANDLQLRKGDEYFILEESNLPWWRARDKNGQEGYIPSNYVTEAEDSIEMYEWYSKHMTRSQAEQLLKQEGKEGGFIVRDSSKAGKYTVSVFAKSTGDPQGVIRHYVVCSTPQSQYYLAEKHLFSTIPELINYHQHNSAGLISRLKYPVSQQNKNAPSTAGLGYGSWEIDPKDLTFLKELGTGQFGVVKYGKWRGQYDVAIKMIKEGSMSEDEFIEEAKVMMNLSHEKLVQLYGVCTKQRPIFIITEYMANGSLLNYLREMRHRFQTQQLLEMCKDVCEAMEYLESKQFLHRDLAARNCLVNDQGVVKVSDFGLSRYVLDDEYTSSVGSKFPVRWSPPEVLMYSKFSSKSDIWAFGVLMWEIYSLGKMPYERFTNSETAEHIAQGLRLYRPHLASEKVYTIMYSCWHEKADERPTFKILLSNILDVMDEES
Chain of dephosphorylated BTK (Q06187 whole entry): as the sequence (Q06187 whole entry C481S) above, with S481C counted along it
Chain of wild type BTK [BTK(WT)] (Q06187 whole entry): as the sequence (Q06187 whole entry C481S) above, with S481C counted along it

IC50 (wild type BTK [BTK(WT)])	IC50 (OCI-Ly10 cells)	IC50 [1]	C481S mutation-resistance [1]	IC50 (dephosphorylated BTK)	Compound
0.73 nM	17 nM	1.03 nM	1.4	< 10 nM	CS(=O)(=O)c1ccc(-c2cc3c(-c4cccc(-n5ccc6cc(C7CC7)cc(F)c6c5=O)c4CO)nc(N)nc3[nH]2)cc1 [Example 41, 2-(3-{2-amino-6-[4-(methylsulfonyl)phenyl]-7H-pyrrolo[2,3-d]pyrimidin-4-yl}-2-(hydroxymethyl)phenyl)-6-cyclopropyl-8-fluoroisoquinolin-1(2H)-one]
0.87 nM	97 nM	1.06 nM	1.2	< 10 nM	Nc1nc(-c2cccc(-n3ccc4cc(C5CC5)cc(F)c4c3=O)c2CO)c2cc(-c3cccc(F)n3)[nH]c2n1 [Example 42, 2-{3-[2-amino-6-(6-fluoropyridin-2-yl)-7H-pyrrolo[2,3-d]pyrimidin-4-yl]-2-(hydroxymethyl)phenyl}-6-cyclopropyl-8-fluoroisoquinolin-1(2H)-one]
1.11 nM	194 nM	1.72 nM	1.5	< 10 nM	Nc1nc(-c2cccc(-n3ccc4cc(C5CC5)cc(F)c4c3=O)c2CO)c2cc(-c3ccnc(F)c3)[nH]c2n1 [Example 43, 2-{3-[2-amino-6-(2-fluoropyridin-4-yl)-7H-pyrrolo[2,3-d]pyrimidin-4-yl]-2-(hydroxymethyl)phenyl}-6-cyclopropyl-8-fluoroisoquinolin-1(2H)-one]
0.47 nM	18 nM	0.93 nM	2	–	Nc1nc(-c2cccc(-n3ccc4cc(C5CC5)cc(F)c4c3=O)c2CO)c2cc(-c3ccc(CN4CCNC(=O)C4)cc3)[nH]c2n1 [Example 66, 2-[3-(2-amino-6-{4-[(3-oxopiperazin-1-yl)methyl]phenyl}-7H-pyrrolo[2,3-d]pyrimidin-4-yl)-2-(hydroxymethyl)phenyl}-6-cyclopropyl-8-fluoroisoquinolin-1(2H)-one]
0.25 nM	8 nM	0.58 nM	2.3	–	Nc1nc(-c2cccc(-n3ccc4cc(C5CC5)cc(F)c4c3=O)c2CO)c2cc(C3=CCS(=O)(=O)CC3)[nH]c2n1 [Example 83, 2-{3-[2-amino-6-(1,1-dioxido-3,6-dihydro-2H-thiopyran-4-yl)-7H-pyrrolo[2,3-d]pyrimidin-4-yl]-2-(hydroxymethyl)phenyl}-6-cyclopropyl-8-fluoroisoquinolin-1(2H)-one]
0.41 nM	6 nM	0.82 nM	2	–	CCC(=O)N1CC=C(c2cc3c(-c4cccc(-n5ccc6cc(C7CC7)cc(F)c6c5=O)c4CO)nc(N)nc3[nH]2)CC1 [Example 84, 2-{3-[2-amino-6-(1-propionyl-1,2,3,6-tetrahydropyridin-4-yl)-7H-pyrrolo[2,3-d]pyrimidin-4-yl]-2-(hydroxymethyl)phenyl}-6-cyclopropyl-8-fluoroisoquinolin-1(2H)-one]
0.94 nM	7 nM	1.49 nM	1.6	–	Nc1nc(-c2cccc(-n3ccc4cc(C5CC5)cc(F)c4c3=O)c2CO)c2cc(C3=CCN(C(=O)N4CCCC4)CC3)[nH]c2n1 [Example 88, 2-(3-{2-amino-6-[1-(pyrrolidine-1-carbonyl)-1,2,3,6-tetrahydropyridin-4-yl]-7H-pyrrolo[2,3-d]pyrimidin-4-yl}-2-(hydroxymethyl)phenyl)-6-cyclopropyl-8-fluoroisoquinolin-1(2H)-one]
0.34 nM	10 nM	0.7 nM	2.1	–	CS(=O)(=O)N1CC=C(c2cc3c(-c4cccc(-n5ccc6cc(C7CC7)cc(F)c6c5=O)c4CO)nc(N)nc3[nH]2)CC1 [Example 89, 2-(3-{2-amino-6-[1-(methylsulfonyl)-1,2,3,6-tetrahydropyridin-4-yl]-7H-pyrrolo[2,3-d]pyrimidin-4-yl}-2-(hydroxymethyl)phenyl)-6-cyclopropyl-8-fluoroisoquinolin-1(2H)-one]
0.47 nM	38 nM	1.1 nM	2.1	–	CCN1CC=C(c2cc3c(-c4cccc(-n5ccc6cc(C7CC7)cc(F)c6c5=O)c4CO)nc(N)nc3[nH]2)CC1 [Example 91, 2-{3-[2-amino-6-(1-ethyl-1,2,3,6-tetrahydropyridin-4-yl)-7H-pyrrolo[2,3-d]pyrimidin-4-yl]-2-(hydroxymethyl)phenyl}-6-cyclopropyl-8-fluoroisoquinolin-1(2H)-one]
